Results reported in patent US4675187A, “BBM-1675, a new antibiotic complex” (priority 1985, dated 1987).
“And” between values parts separate entries of the source, which are not always exact repeats. Equal entries are not always repeated. Where two headings read alike, the source gives them in different places.

Key:
P-388 leukemia = experiment: antitumor activity, intravenously implanted P-388 leukemia; assay type: in vivo, mice
toxicity in mice = conditions: mouse, in vivo
[1] = iv days 1,4,7, doses as MST lines, same order
[2] = ip qd 1→11, doses as T/C lines, same order
[3] = ip qd 1→9, doses as T/C lines, same order

Procedure for B16 melanoma: (§1) Lymphocytic leukemia P-388, lymphoid leukemia L-1210, melanotic melanoma B16 and Lewis lung carcinoma were implanted intraperitoneally into male BDF1 mice at an inoculum size of 10^6, 10^5, 5×10^5 and 10^6 cells per mouse, respectively. Graded doses of test compounds were administered to the mice intraperitoneally 24 hours after the tumor inoculation.
(§2) Death or survival of the treated and non-treated mice was recorded daily, and the median survival time (MST) was calculated for each of the test (T) and control (C) groups.
Procedure for Lewis lung carcinoma: as §1, §2

| SMILES | T/C (P-388 leukemia; iv days 1,4,7, 1 mg/kg/day) | T/C (P-388 leukemia; iv days 1,4,7, 10 mg/kg/day) | Survivors on day 5 (P-388 leukemia; [1]) | Survivors on day 45 (P-388 leukemia; [1]) | LD50 (toxicity in mice; ip, LD50, multiple dose (qd 1→9) i.p.) | LD50 (toxicity in mice; ip, LD50, single dose i.p.) | LD50 (toxicity in mice; iv, LD50, single dose i.v.) | T/C (Lewis lung carcinoma; ip qd 1→11, 0.003 mg/kg/day) | MST (Lewis lung carcinoma; [2]) | Survivors on day 5 (Lewis lung carcinoma; [2]) | Survivors on day 45 (Lewis lung carcinoma; [2]) | Average wt. change on day 5 (Lewis lung carcinoma; mouse, in vivo, ip) | Survivors on day 5 (Lewis lung carcinoma; mouse, in vivo, ip) | T/C (B16 melanoma; ip qd 1→9, 0.003 mg/kg/day) | Average wt. change on day 5 (B16 melanoma; [3]) | MST (B16 melanoma; [3]) | Survivors on day 5 (B16 melanoma; [3]) | Survivors on day 45 (B16 melanoma; [3]) |
| --- | --- | --- | --- | --- | --- | --- | --- | --- | --- | --- | --- | --- | --- | --- | --- | --- | --- | --- |
| COc1cccc2c1C(=O)c1c(O)c3c(c(O)c1C2=O)C[C@@](O)(C(=O)CO)C[C@@H]3O[C@H]1C[C@H](N)[C@H](O)[C@H](C)O1 [Adriamycin, adriamycin] | 100% | 100% | 0/6 and 6/6 | 0/6 |  |  |  |  |  |  |  |  |  |  |  |  |  |  |
| CO[C@@H]1[C@H](O)C[C@@H](O[C@@H]2C[C@H](Oc3cc4cc5c(c(O)c4c(O)c3C)C(=O)[C@@H](O[C@H]3C[C@@H](O[C@H]4C[C@@H](O[C@H]6C[C@](C)(O)[C@@H](OC(C)=O)[C@H](C)O6)[C@H](O)[C@@H](C)O4)[C@H](O)[C@@H](C)O3)[C@H]([C@H](OC)C(=O)[C@@H](O)[C@@H](C)O)C5)O[C@H](C)[C@@H]2OC(C)=O)O[C@@H]1C [Chromomycin A3, chromomycin A3] |  |  |  |  | 0.23 mg/kg | 0.81 mg/kg | 0.41 mg/kg | 105% | 21.5 days and 17.0 days and 11.5 days | 6/6 | 1/6 and 0/5 and 0/6 | +1.7 g | 5/5 | 109% | +2.2 g | 25.5 days and 23.0 days and 21.0 days and 18.0 days | 6/6 | 0/6 |
